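Each compound was tested at five concentrations against cells in 96-well plates for 48 hours. GI50: concentration for 50% inhibition of growth. TGI: concentration producing complete growth inhibition.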
How the values were obtained:
Test in all cases: NCI anticancer screen, dose series, 48 h
UO-31 renal = tested on: UO-31 renal
HCT-116 colon = tested on: HCT-116 colon
SW-620 colon = tested on: SW-620 colon
NCI-H226 lung = tested on: NCI-H226 lung
OVCAR-3 ovarian = tested on: OVCAR-3 ovarian
UACC-257 melanoma = tested on: UACC-257 melanoma
SNB-75 CNS = tested on: SNB-75 CNS
ACHN renal = tested on: ACHN renal
SF-539 CNS = tested on: SF-539 CNS
HOP-92 NSCLC = tested on: HOP-92 NSCLC

Structure (SMILES) | TGI (UO-31 renal) | TGI (HCT-116 colon) | TGI (SW-620 colon) | TGI (NCI-H226 lung) | TGI (OVCAR-3 ovarian) | TGI (UACC-257 melanoma) | TGI (SNB-75 CNS) | TGI (ACHN renal) | TGI (SF-539 CNS) | TGI (HOP-92 NSCLC) | GI50 (UO-31 renal) | GI50 (SF-539 CNS) | GI50 (HOP-92 NSCLC) | GI50 (HCT-116 colon) | GI50 (SW-620 colon) | GI50 (NCI-H226 lung) | GI50 (UACC-257 melanoma) | GI50 (SNB-75 CNS) | GI50 (ACHN renal)
Cc1cc(N(CCCCl)CCCCl)ccc1C=Nc1cccc(Cl)c1 | 44.2 µM | > 100 µM | 25.4 µM | 0.562 µM | 33.5 µM | 20.2 µM | 24.7 µM | 25.8 µM |  |  |  |  |  |  |  |  |  |  | 
C[n+]1ccc(-c2cc[n+](C)cc2)cc1 | > 100 µM | > 44.5 µM | > 100 µM | 43.1 µM | > 46.6 µM | 3.09 µM | 99.8 µM | > 100 µM | > 46.4 µM | > 63.6 µM |  |  |  |  |  |  |  |  | 
c1ccc2sc(SCN(C3CCCCC3)C3CCCCC3)nc2c1 | > 100 µM |  | > 100 µM | > 100 µM | > 100 µM | > 100 µM |  | > 100 µM |  | > 100 µM |  |  |  |  |  |  |  |  | 
Nc1ccc(Nc2c3ccccc3nc3ccccc23)cc1 |  | 9.52 µM | > 10 µM | 7.52 µM | > 10 µM | > 10 µM |  | 4.58 µM | > 10 µM |  |  |  |  |  |  |  |  |  | 
Nc1nnc(N)n1NC(=O)C(=O)Nc1ccc([N+](=O)[O-])cc1 | > 100 µM | > 100 µM | > 100 µM | > 100 µM |  | > 100 µM | > 100 µM | > 100 µM | > 100 µM | > 100 µM |  |  |  |  |  |  |  |  | 
COc1cc2c(cc1Oc1ccc(OC)c3c1CC1c4c(cc(OC)c(OC)c4-3)CCN1C)CC1c3c(cc(OC)c(OC)c3-2)CCN1C (stereo not drawn) | 17.7 µM | 4.49 µM | 5.73 µM | 5.01 µM | 14.9 µM | 3.21 µM | 10.1 µM |  | 3.39 µM | 12.4 µM |  |  |  |  |  |  |  |  | 
Fc1ccc(-c2nnc3sc(COc4ccccc4Cl)nn23)cc1Cl | > 100 µM | > 100 µM | 74.5 µM | 57.1 µM |  | > 100 µM | > 100 µM | > 100 µM | > 100 µM | > 100 µM | 32.7 µM | 41.4 µM | 30.4 µM | 29.1 µM | 30.2 µM | 22.8 µM | 46.2 µM | 47.3 µM | 32.7 µM
O=C1c2ccccc2C(=O)c2c1ccc(C(=O)O)c2-c1ccc2ccccc2c1 | 83.3 µM | 47.7 µM | 89.5 µM | 79.6 µM | 65.3 µM | > 100 µM |  | > 100 µM | 50.4 µM |  |  |  |  |  |  |  |  |  | 
CCCCCCCCCCCCCCCCOCC(COP(=O)([O-])OCC[n+]1ccc(N(C)C)cc1)OCC (stereo not drawn) | 29.4 µM | 24.5 µM | 37.2 µM | 33.7 µM | 24.8 µM |  | 18.8 µM | 30.9 µM | 26.3 µM | 32.6 µM |  |  |  |  |  |  |  |  | 
COc1ccc(CC2c3cc(OC)c(OC)c(OC)c3CC[N+]2(C)C)cc1Oc1ccc(CC2c3cc4c(c(OC)c3CCN2C)OCO4)cc1 (stereo not drawn) | > 100 µM | > 100 µM | > 100 µM | > 100 µM | > 100 µM | > 100 µM | > 100 µM | > 100 µM | > 100 µM | > 100 µM |  |  |  |  |  |  |  |  | 
Cc1cc(=O)oc2c1cc(OCC(=O)OCCN1CCCCC1)c1occ(C)c12 | > 100 µM | > 100 µM | > 100 µM | > 100 µM | > 100 µM | > 100 µM | > 100 µM | > 100 µM | > 100 µM | > 100 µM |  |  |  |  |  |  |  |  | 
COc1cc(O)c2c(c1)C(=O)c1cc(C)cc(O)c1C2=O | > 100 µM | > 100 µM | > 100 µM | > 100 µM | > 100 µM | > 100 µM | > 100 µM | > 100 µM | > 100 µM |  |  |  |  |  |  |  |  |  | 
COc1cc(C)c2c(=O)c3c(oc2c1)C(=O)c1c(O)c(OC)cc(O)c1C3=O | 3.62 µM | 3.42 µM | 10.7 µM | 0.524 µM | 2.4 µM | 3.1 µM | 3.84 µM |  | 4.19 µM | 1.26 µM |  |  |  |  |  |  |  |  | 
O=c1cc(O)c2ccccc2o1 | > 100 µM | > 100 µM | > 100 µM | > 100 µM | > 100 µM | > 100 µM | > 100 µM | > 100 µM | > 100 µM | > 100 µM |  |  |  |  |  |  |  |  | 
CC(C)=CCC[C@](C)(O[C@@H]1O[C@H](CO)[C@@H](O)[C@H](O)[C@H]1O)[C@H]1CC[C@]2(C)[C@@H]1[C@H](O)C[C@@H]1[C@@]3(C)CC[C@H](O)C(C)(C)[C@@H]3[C@@H](O[C@@H]3O[C@H](CO)[C@@H](O)[C@H](O)[C@H]3O)C[C@]12C | > 100 µM | > 100 µM | > 100 µM | > 100 µM | > 100 µM | > 100 µM | > 100 µM | > 100 µM | > 100 µM | > 100 µM |  |  |  |  |  |  |  |  | 
Cn1c(Sc2ccc(-c3cccnc3)n2C)ccc1-c1cccnc1 | 33.4 µM | 25.7 µM | 23.6 µM | 51.1 µM | 27.3 µM | 29.1 µM | 46.9 µM | 44.9 µM | 41.8 µM | 28.1 µM |  |  |  |  |  |  |  |  | 
COc1c(Cl)cc(S(=O)O)cc1Cl | > 100 µM | > 100 µM |  |  | > 100 µM | > 100 µM | > 100 µM | > 100 µM | > 100 µM |  |  |  |  |  |  |  |  |  | 
NC(=O)Nc1cc(O)ccc1N=Nc1ccc(S(=O)(=O)Nc2ccccn2)cc1 | > 100 µM | > 100 µM | > 100 µM |  | > 100 µM | > 100 µM | > 100 µM | > 100 µM | > 100 µM | > 100 µM |  |  |  |  |  |  |  |  | 
CCOC(=O)NC | > 100 µM | > 100 µM | > 100 µM |  | > 100 µM | > 100 µM | > 100 µM | > 100 µM | > 100 µM | > 100 µM |  |  |  |  |  |  |  |  | 

Source: PubChem BioAssay (NCI)
